According to patent publication US12565504B2, “Spirocyclic O-glycoprotein-2-acetamido-2-deoxy-3-d-glucopyranosidase inhibitors” (BIOGEN MA INC., priority 2019, dated 2026):
Like-named read-outs stand apart in the source and are kept apart here.

Experiments:
[1] = rat, microsomes, 1 μM, pH 7.4
Procedure: (§1) Aliquots (40 uL) at 0, 5, 10, 15, 25 and 40 minutes post NADPH addition (or compound addition for reactions in absence of NADPH) were transferred into individual 96-well plate wells containing 40 ng/ml of 8-cyclopently-1,3-dipropylxanthine (CPDPX, internal standard) in 160 uL acetonitrile:methanol (1:1 v/v).
(§2) The LC/MS/MS system consisted of an ultra high throughput RapidFire® 300 system (Agilent Technologies, Santa Clara, CA) coupled to a Triple Quad 5500 mass spectrometer (ABSciex, Foster City, CA). Sample load and wash were performed on a RapidFire® C4 cartridge using 0.1% formic acid in water as mobile phase A and sample elution using 0.1% formic acid in acetonitrile:methanol (1:1 v/v) as mobile phase B.
(§3) CLint, app (apparent intrinsic clearance) was calculated using the following equation for microsome stability.
(§4) [formula] • where “a” represents 45 grams of liver/kg of body weight for rat. • CLint,app (apparent intrinsic clearance) was calculated using the following equation for hepatocyte stability: • CLhep (hepatic clearance) was calculated using the following equation for microsomes
(§5) [formula] • using 55 mL/minute/kg as Qh (hepatic blood flow) for rat.

[2] = molecular target: Recombinant full length human OGA enzyme (Homo sapiens (Human), UniProt O60502); assay: OGA Enzyme Inhibition Biochemical Assay; details: 1 nM OGA, 100 μM 4-MUGlcNAc, 90 minutes, pH 6.4
Sequence of Recombinant full length human OGA enzyme (O60502 whole entry): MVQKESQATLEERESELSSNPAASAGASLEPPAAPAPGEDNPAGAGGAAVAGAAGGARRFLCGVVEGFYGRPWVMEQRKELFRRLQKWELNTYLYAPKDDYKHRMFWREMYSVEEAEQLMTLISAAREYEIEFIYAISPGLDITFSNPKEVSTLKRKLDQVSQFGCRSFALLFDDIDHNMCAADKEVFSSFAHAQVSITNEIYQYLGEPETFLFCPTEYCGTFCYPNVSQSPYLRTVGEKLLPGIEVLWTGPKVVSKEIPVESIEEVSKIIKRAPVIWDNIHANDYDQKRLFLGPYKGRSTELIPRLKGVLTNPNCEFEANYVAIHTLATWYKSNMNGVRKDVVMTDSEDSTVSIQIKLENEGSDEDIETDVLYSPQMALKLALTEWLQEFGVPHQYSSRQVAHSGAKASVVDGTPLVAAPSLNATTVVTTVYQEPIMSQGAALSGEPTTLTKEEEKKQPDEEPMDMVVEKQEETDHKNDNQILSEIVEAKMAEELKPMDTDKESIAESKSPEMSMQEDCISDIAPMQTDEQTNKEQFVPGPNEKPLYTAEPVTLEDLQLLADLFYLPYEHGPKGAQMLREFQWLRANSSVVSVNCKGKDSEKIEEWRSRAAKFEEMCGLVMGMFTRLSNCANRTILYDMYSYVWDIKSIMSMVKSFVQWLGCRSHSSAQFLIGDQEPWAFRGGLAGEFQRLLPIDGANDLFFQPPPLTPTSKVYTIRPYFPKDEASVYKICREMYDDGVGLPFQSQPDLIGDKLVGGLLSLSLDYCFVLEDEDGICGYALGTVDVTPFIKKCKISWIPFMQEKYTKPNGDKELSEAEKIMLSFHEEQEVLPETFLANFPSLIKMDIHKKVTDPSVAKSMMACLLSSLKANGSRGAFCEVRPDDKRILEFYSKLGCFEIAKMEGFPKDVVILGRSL
Outline: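 Full-length recombinant human OGA with fluorogenic 4-MUGlcNAc in McIlvaine buffer pH 6.4, 0.01% BSA; 90 min at room temperature, glycine pH 10 quench, fluorescence Ex 355/Em 460 nm. 10-point, 4-fold dilution from 20 μM; 4-parameter variable-slope fit.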

[3] = Rat Liver Microsome Stability Assay; details: rat liver microsomes 0.5 mg/mL, compound 1 μM; Qh 55 mL/minute/kg
Procedure: as §1, §2, §3, §4, §5

[4] = system: P-gp (MDR1); assay: MDR1-MDCK Efflux Ratio Assay; format: in vitro ADME; details: dog, MDR1-MDCK cells, pH 7.4, read-out: MDR1-MDCK Efflux Ratio (B-A/A-B)
Procedure: MDR1-MDCK cell monolayers were grown to confluence on microporous polyester membranes in 96-well Corning insert plates. The permeability assay buffer was Hanks' Balanced Salt Solution containing 10 mM HEPES at pH of 7.4. Loperamide (1 μM) was used as a positive control P-gp substrate. Propranolol and Bestatin (1 μM) were used as high and low permeability comparators, respectively.
Test compounds or positive control P-gp substrate/permeability comprators were added to respective apical and basolateral chambers for bidirectional assessment of permeability. Receiver buffer (transport buffer supplemented with 1% bovine serum albumin) was added to respective receiver chambers. MDR1-MDCK cells were incubated with test compounds at 37° C. with 5% CO2 for 2 hr. Samples were collected from the donor chamber at both 0 and 120 minutes, and from the receiver chamber at 120 minutes. Test and control compound concentrations were determined using LC-MS/MS analysis. Each determination was performed in triplicate.

[5] = molecular target: OGA (S400 O-GLCNAC) (Homo sapiens (Human), UniProt O60502); assay: Cellular OGA-Tau MSD Assay; format: cell-based; details: HEK-293T cells transfected with OGT and Tau-V5; Tau-S400-GlcNAc MSD readout
Sequence of OGA (S400 O-GLCNAC) (O60502 whole entry): as above
Outline: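 HEK-293T cells transiently co-expressing OGT and Tau-V5 were treated overnight at 37° C with compounds (top 1 uM, 3-fold, 10 points). Lysate Tau was captured on V5 antibody, and S400-GlcNAc was detected by MSD electrochemiluminescence. IC50 was derived from a 4-parameter fit of normalized % activity.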

Row | SMILES | IC50 [2] | RLM % Qh (%) [3] | efflux ratio at 2 hr [4] | IC50 [5] | RLM % Qh (%) [1]
1 | CC(=O)Nc1nc(F)c(CN2CCC3(Cc4ncccc4O3)C2)s1 (stereo not shown) [Example 91, N-(5-((3H-spiro[furo[3,2-b]pyridine-2,3′-pyrrolidin]-1′-yl)methyl)-4-fluorothiazol-2-yl)acetamide] | 70 nM |  |  |  | 45%
2 | CC(=O)Nc1nc(F)c(CN2CCC3(Cc4cnc(Cl)cc4O3)C2)s1 (stereo not shown) [Example 7, N-(5-((6-Chloro-3H-spiro[furo[3,2-c]pyridine-2,3′-pyrrolidin]-1′-yl)methyl)-4-fluorothiazol-2-yl)acetamide] | 54 nM | 46% | 6.7 | 301 nM | 
3 | CNc1cc2c(cn1)O[C@]1(C2)C[C@H](C)N(Cc2sc(NC(C)=O)nc2F)C1 [Example 29, N-(4-Fluoro-5-(((2R,5′S)-5′-methyl-5-(methylamino)-3H-spiro[furo[2,3-c]pyridine-2,3′-pyrrolidin]-1′-yl)methyl)thiazol-2-yl)acetamide] | < 1 nM | 55% | 17.7 | 3 nM | 

Now from value to compound, other results behind:

Row | IC50 [2] | RLM % Qh (%) [3] | efflux ratio at 2 hr [4] | IC50 [5] | SMILES | RLM % Qh (%) [1]
4 | 1.9 nM | 66% | 25 | 14 nM | CC(=O)Nc1ncc(CN2C[C@@]3(Cc4cc(N5C[C@H](C)O[C@@H](C)C5)ncc4O3)C[C@@H]2C)s1 [Example 42, N-(5-(((2R,5′S)-5-((2S,6S)-2,6-Dimethylmorpholino)-5′-methyl-3H-spiro[furo[2,3-c]pyridine-2,3′-pyrrolidin]-1′-yl)methyl)thiazol-2-yl)acetamide] | 
5 | 55 nM | 58% | 17.7 | 62 nM | COc1cc2c(cn1)[C@]1(C[C@H](C)N(Cc3cnc(NC(C)=O)s3)C1)OC2 (single isomer, unassigned) [Example 76-a] | 
6 | 1.5 nM | 54% | 27 | 14 nM | CC(=O)Nc1ncc(CN2C[C@@]3(Cc4cc(N5C[C@@H](C)O[C@H](C)C5)ncc4O3)C[C@@H]2C)s1 [Example 40, N-(5-(((2R,5′S)-5-((2R,6R)-2,6-Dimethylmorpholino)-5′-methyl-3H-spiro[furo[2,3-c]pyridine-2,3′-pyrrolidin]-1′-yl)methyl)thiazol-2-yl)acetamide] | 
